Here are results for 22 compounds from ChEMBL document CHEMBL1133076, “The design, synthesis and activity of non-ATP competitive inhibitors of pp60(c-src) tyrosine kinase. Part 1: hydroxynaphthalene derivatives” (Bioorg Med Chem Lett, 2000).

SMILES strings stand for the structures. Calls of active or inactive are those of the source.

Assay [1] addresses T1, Proto-oncogene tyrosine-protein kinase Src (Homo sapiens, UniProt P12931). Description: Inhibition of human purified recombinant p60 c-Src tyrosine kinase at 100 uM.
Assay [2] addresses T1, Proto-oncogene tyrosine-protein kinase Src. Kind of assay: Inhibition of human purified recombinant pp60c-src tyrosine kinase at 100 uM.
The target is the same in assay [3]. Kind of assay: nhibition of human purified recombinant pp60c-src tyrosine kinase at 100 uM (Inactive).
For assay [4] the target is unchanged. Description: Inhibition of human purified recombinant pp60c-src tyrosine kinase.

T1 sequence (P12931 2-536 limits assumed): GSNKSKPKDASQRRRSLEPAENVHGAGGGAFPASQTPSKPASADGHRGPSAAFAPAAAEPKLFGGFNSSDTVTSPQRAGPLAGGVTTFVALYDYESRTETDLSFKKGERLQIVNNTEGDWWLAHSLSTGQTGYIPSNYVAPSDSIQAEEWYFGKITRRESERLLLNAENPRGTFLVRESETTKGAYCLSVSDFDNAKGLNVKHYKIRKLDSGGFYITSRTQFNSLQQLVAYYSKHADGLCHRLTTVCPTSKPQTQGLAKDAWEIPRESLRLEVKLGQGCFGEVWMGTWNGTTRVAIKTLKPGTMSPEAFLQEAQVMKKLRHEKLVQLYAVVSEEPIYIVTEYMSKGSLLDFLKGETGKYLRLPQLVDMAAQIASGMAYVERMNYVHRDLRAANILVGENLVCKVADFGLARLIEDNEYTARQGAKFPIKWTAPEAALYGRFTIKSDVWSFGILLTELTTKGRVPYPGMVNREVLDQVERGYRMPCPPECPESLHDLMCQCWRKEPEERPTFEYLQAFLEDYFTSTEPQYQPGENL

`O=C(NCc1ccccc1O)c1cc2cccc(O)c2cc1O`: the inhibition (commonly the percentage by which the read-out fell short of the control) in assay [1] was found to be 41%.

With `O=C(NCc1ccc(O)cc1)c1cc2ccc(O)cc2cc1O`, the inhibition in assay [2] stood at 42%.

As to `COC(=O)c1cc2ccccc2cc1N`, in assay [3], the inhibition entry was “inactive”.

With `O=C(Nc1ccccc1O)c1cc2ccc(O)cc2cc1O`, the inhibition in assay [2] came out at 39%.

`O=C(Nc1cccc(O)c1)c1cc2cccc(O)c2cc1O`: the inhibition in assay [2] amounted to 51%. In addition, the IC50 (in general, the concentration needed to halve the response being measured) in assay [4] is 150 µM.

For the compound `O=C(Nc1cccc(O)c1)c1cc2ccc(O)cc2cc1O`, the inhibition in assay [2] came to 89%.

For the compound `O=C(Nc1ccc(O)cc1)c1cc2ccc(O)cc2cc1O`, the inhibition in assay [2] was 23%.

Consider `O=C(NCc1cccc(O)c1)c1cc2ccc(O)cc2cc1O`, for which the inhibition in assay [2] was determined as 55%.

On to `Cc1cc(O)c2c(c1)C(=O)c1cc(O)cc(O)c1C2=O`, for which the inhibition in assay [2] came out at 22%.

In the case of `COc1cccc(NC(=O)c2cc3cccc(O)c3cc2O)c1`, the inhibition in assay [2] came to 33%.

As for `O=C(NCc1ccccc1O)c1cc2ccc(O)cc2cc1O`, the inhibition in assay [2] is 42%.

In the case of `COc1ccc(NC(=O)c2cc3cccc(O)c3cc2O)cc1`, the inhibition in assay [2] was determined as 35%.

Take `O=C(Nc1ccc(O)cc1O)c1cc2cccc(O)c2cc1O`: in assay [2], the inhibition worked out at 14%.

Turning to `COc1ccc(CNC(=O)c2cc3cccc(O)c3cc2O)cc1`, the inhibition in assay [2] was determined as 14%.

As for `COc1ccccc1CNC(=O)c1cc2cccc(O)c2cc1O`, the inhibition in assay [2] was 13%.

`COC(=O)c1cc2ccc(O)cc2cc1O`: the inhibition in assay [2] stood at 47%.

For the compound `O=C(NCc1ccc(O)cc1)c1cc2cccc(O)c2cc1O`, in assay [1], the inhibition stood at 49%.

Regarding `O=C(Nc1cccc(O)c1)c1ccc2cc(O)ccc2c1`, the inhibition in assay [2] was 45%.

Take `COc1ccccc1CNC(=O)c1cc2ccc(O)cc2cc1O`: the inhibition entry in assay [3] was “inactive”.

For `COC(=O)c1cc2cccc(O)c2cc1O`, the inhibition in assay [2] was determined as 5%.

On to `Oc1cc(O)cc(/C=C/c2ccc(O)c(O)c2)c1`, for which the inhibition in assay [1] was found to be 41%.

In the case of `O=C(Nc1ccccc1O)c1cc2cccc(O)c2cc1O`, in assay [2], the inhibition worked out at 12%.
